Reference: US11730717B1, “Melanin-inspired antimicrobial” (The Board of Regents for the Oklahoma Agricultural and …, priority 2020, dated 2023)
“And” between values parts separate entries of the source, which are not always exact repeats. Identical values can stand only once. “Also recorded” adds a separate entry of the source. Like-named read-outs stand apart in the source and are kept apart here.

How the values were obtained:
B. subtilts ATCC 6633 = assay: MIC and MBC values (Table 2); format: cell-based; details: Bacillus subtilis, ATCC6633
S. lactis = assay: MIC and MBC values (Table 2); format: cell-based; details: repeated determinations
HeLa cells = assay: Cytotoxicity, LDH leakage assay; format: cell-based
Protocol: HeLa cells were cultured in 96-well plates at 37° C. and 5% CO2 in Roswell Park Memorial Institute (RMPI) 1640 medium with 5% Fetal Bovine Serum (FBS). Once HeLa cells reached 95% confluency, the media was replaced with media containing various concentrations of EIPE-1, DBI or DMSO for 24 hours. Cell cytotoxicity was measured using the lactate dehydrogenase (LDH) leakage assay. Results were compared to maximum values of lysed cells in control wells and were graphed as percent relative cytotoxicity using Prism 5.0.
Host cell cytotoxicity against HeLa cells was examined for both DBI and EIPE-1 (FIG. 2B). LDH release was examined after 24-hour exposure to varying concentrations of DBI, DMSO and EIPE-1. […] Thus, EIPE-1 is relatively safe to use with respect to eukaryotic cells.

MRSA [1] = assay: Comparison with Methicillin and Gentamicin, recoverable CFU; format: cell-based, Staphylococcus aureus; details: compared with Methicillin and Gentamicin treatment
Protocol: To determine CFUs of PA and MRSA after exposure to DMSO, DBI, EIPE-1, Gentamicin or Methicillin, 10-fold serial dilutions were prepared in 96-well micro plates using multichannel pipettes. For each dilution, 25 ptL of each sample was pipetted onto a plate containing agar medium and incubated for 18 h at 37° C. The number of colonies for each dilution were counted and used to back calculate the number of bacteria per mL (CFU/mL) in each original bacterial culture.
EIPE-1 antimicrobial activity against MRSA and PA was compared to that of Methicillin and Gentamicin treatment. Bacterial cultures were grown, normalized and then exposed to either DBI, DMSO (solvent control), EIPE-1, Methicillin or Gentamicin (FIG. 3). […] This is highly significant and novel as methicillin resistance is a huge problem in hospitals and patient treatment worldwide. […] Gram-negative bacteria like PA have an outer membrane covered with lipopolysaccharides that protects the bacteria from antibiotics, dyes, and detergents from penetrating the bacterial cell.

MRSA [2] = assay: Kirby-Bauer disc diffusion assay; format: cell-based, Staphylococcus aureus; details: Staphylococcus aureus, 24-hour incubation at 37° C.
Protocol: The susceptibility of MRSA to EIPE-1 was determined by the Kirby-Bauer disc diffusion method. Using a cotton swab applicator, a lawn of the S. aureus clinical isolate was placed onto Mueller Hinton agar plates to cover the entire surface of the plate. Filter discs (size=6 mm) were added onto the bacterial lawn. EIPE-1, DBI, and DMSO (10 μL each) were then added onto the filter discs.
The efficacy of compound EIPE-1 was tested by the Kirby-Bauer disc assay. The Kirby-Bauer disc assay assesses the sensitivity of bacteria to antimicrobial agents. If the bacteria are sensitive to the antimicrobial being tested, then a zone of inhibition of bacterial growth is seen around the filter disc containing the antimicrobial. The Kirby-Bauer disc assay was used to test the antimicrobial efficacy of EIPE-1 against MRSA. EIPE-1 was reconstituted at 1 mg/mL in DMSO and serially diluted (10^−1 to 10^−5) after which 10 μL of each dilution (and DMSO as a solvent control) was added to a separate disc on an LB plate inoculated with a lawn of bacteria. The plates were incubated at 37° C. for 24 h, and the resulting radii zone sizes around each disc were then measured.

S. epidermidis SK01 = assay: MIC and MBC values (Table 2); format: cell-based; details: Staphylococcus epidermidis
P. moltocida P-1581 = assay: MIC and MBC values (Table 2); format: cell-based; details: Pasteurella, P1581
E. faecalis = assay: MIC and MBC values (Table 2); format: cell-based, Enterococcus faecalis; details: repeated determinations
[3] = tested on: Candida albicans strain SC5314; assay: Antifungal MIC assay; format: cell-based; details: for MIC: Candida albicans
Protocol: Cryptococcus neoformans serotype A strain H99 as well as Candida ablicans strain SC5314, were readily available in the lab. The stock of cells is stored at −80° C. to preserve the fungi and prevent contamination. The cells were grown and maintained in yeast extract-peptone-dextrose (YPD) media (Difco). Cryptococcus or Candida cells were incubated in YPD broth for 18 hrs at 30° C., in a shaking incubator. After the incubation period, they were washed three times in sterile phosphate-buffered saline (PBS) to remove all remaining residue of YPD. The cells were then quantified by using trypan blue dye exclusion in a hemocytometer.
C. albicans were suspended in RPMI with MOPS, 0.165M, at a concentration of 0.5×10^3 cells/mL. RPMI Mops media was added to a 96-well plate in a volume of 100 μL to every well, with the exception of column 1. An additional 80 μL of RPMI MOPS was added to column 4 for a total of 180 μL/per well. EIPE-1 was added to columns 2 and 4 with a volume of 20 μL at a concentration of 1 mg/mL. Contents were mixed, then serially diluted 100 μL down the plate until column 11. The last 100 μL was discarded, leaving column 12 blank. C. albicans was added at a volume of 100 μL per well from column 4 to column 12, so the final volume of the wells was 200 μL. Plates were incubated at 35° C. in a humid incubator for 48 hrs.

Compound: COC(=O)c1cc2c(C#Cc3ccc(OCCC[N+](C)(C)C)cc3)c(OC)c(OC)c(C#Cc3ccc(OCCC[N+](C)(C)C)cc3)c2n1C [EIPE-1, 3,3′-((((5,6-dimethoxy-2-(methoxycarbonyl)-1-methyl-1H-indole-4,7-diyl)bis(ethyne-2,1-diyl))bis(4,1-phenylene))bis(oxy))bis(N,N,N-trimethylpropan-1-aminium) iodide]
- MBC (B. subtilts ATCC 6633): 1 µg/mL
- MIC (B. subtilts ATCC 6633): 1 µg/mL
- MBC (S. lactis): 2 µg/mL
- MBC (μg/mL) (S. lactis): 1.000 µg/mL
- MIC (S. lactis): 1 µg/mL
- MIC (μg/mL) (S. lactis): 0.500 µg/mL
- concentration at which cell cytotoxicity was detected (HeLa cells): 62.5 μg/mL and 66.8 μM
- maximal cytotoxicity (LDH release) (HeLa cells; 24-hour exposure, concentrations above 62.5 μg/mL (66.8 μM)): 50%
- cytotoxic concentration relative to the MIC against S. aureus (HeLa cells; prolonged exposure (24 h)): 4-5 fold
- biocidal activity against MRSA (MRSA [1]): effective in killing MRSA; also recorded: exhibited biocidal activity
- zone of inhibition at 10 µg/mL (MRSA [2]; 10 μL of 0.01 mg/mL on disc): 1 mm
- zone of inhibition at 100 µg/mL (MRSA [2]; 10 μL of 0.1 mg/mL on disc): 1.5 mm
- zone of inhibition at 1000 µg/mL (MRSA [2]; 10 μL of 1.0 mg/mL on disc): 2 mm
- MBC (S. epidermidis SK01): 2 µg/mL
- MIC (S. epidermidis SK01): 1 µg/mL
- MBC (P. moltocida P-1581): 64 µg/mL
- MIC (P. moltocida P-1581): 64 µg/mL
- MIC (E. faecalis; Enterococcus faecalis, read-out: MIC): 1 µg/mL
- MIC (E. faecalis): 2.000 µg/mL
- Minimum inhibitory concentration (MIC) for the isolate of C. albicans ([3]; 35° C., 48 hrs, RPMI with MOPS): 2.705 ± 0.3962 µg/mL
- MIC ([3]; SC5314, 48 h, 35° C., 48 hrs, RPMI with MOPS, read-out: Minimum inhibitory concentration (MIC) for the isolate of C. albicans): 2.71 µg/mL
- MIC ([3]; SC5314, across seven experiments, read-out: Candida MIC): 2.46 µg/mL
